Test results from EP4186514A1, “PHARMACEUTICAL COMPOSITION FOR PREVENTING OR TREATING CHOLANGITIS OR LIVER DISEASE CAUSED BY CHOLANGITIS COMPRISING ADENOSINE DERIVATIVE” (Future Medicine Co., Ltd., priority 2021, dated 2023).

Key:
A1 adenosine receptor = target: T1, A1 adenosine receptor (Homo sapiens, UniProt P30542); assay: Radioligand binding affinity, A1 adenosine receptor ([3H]CCPA, CHO cells); design: % hA1: dose or concentration left out as unconfirmed; details: for % hA1: percentage inhibition of specific binding of [3H]CCPA; for Ki: nM ± SEM, read-out: Ki(nM) hA1
T1 construct: expressed in transfected cells; host or cells: CHO cells (ATCC No. CCL-61)
T1 sequence (P30542 1-326): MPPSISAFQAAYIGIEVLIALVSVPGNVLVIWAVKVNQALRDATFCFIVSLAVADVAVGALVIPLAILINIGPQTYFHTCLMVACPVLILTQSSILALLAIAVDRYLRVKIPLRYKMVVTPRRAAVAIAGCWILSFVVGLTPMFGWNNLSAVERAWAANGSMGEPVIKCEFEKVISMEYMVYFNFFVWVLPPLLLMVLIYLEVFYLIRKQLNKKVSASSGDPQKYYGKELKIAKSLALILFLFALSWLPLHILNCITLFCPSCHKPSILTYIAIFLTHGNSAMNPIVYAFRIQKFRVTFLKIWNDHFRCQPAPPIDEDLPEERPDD
Description: (§1) CHO cells (ATCC No. CCL-61), in which A1 and A3 adenosine receptors were expressed, were cultured in F-12 media (Gibco, U.S.A.) supplemented with 10% fetal bovine serum (FBS) and penicillin/streptomycin (100 units/ml and 100 g/ml), at 37° C. in a 5% CO2 atmosphere. […] Incubation for 1 hr in a 37° C. incubator was followed by rapid filtration in a vacuum using a cell collector (TOMTEC, U.S.A.). Subsequently, the test tubes were washed three times with 3 ml of the buffer before radioactivity was measured using a γ-counter. […] Ki for binding affinity was determined by subtracting the non-specific binding value from the total binding value. On the basis of the specific binding values, the samples were analyzed for binding affinity to various adenosine receptors.

A2A adenosine receptor = target: T2, A2A adenosine receptor (Homo sapiens, UniProt P29274); assay: Radioligand binding affinity, A2A adenosine receptor ([3H]CGS-21680, HEK 293 cell); details: for % hA2A: percentage inhibition of specific binding of 10 µM; for Ki: nM ± SEM, read-out: Ki(nM) hA2A
T2 construct: expressed in transfected cells; host or cells: HEK 293 cell
T2 sequence (P29274 whole entry): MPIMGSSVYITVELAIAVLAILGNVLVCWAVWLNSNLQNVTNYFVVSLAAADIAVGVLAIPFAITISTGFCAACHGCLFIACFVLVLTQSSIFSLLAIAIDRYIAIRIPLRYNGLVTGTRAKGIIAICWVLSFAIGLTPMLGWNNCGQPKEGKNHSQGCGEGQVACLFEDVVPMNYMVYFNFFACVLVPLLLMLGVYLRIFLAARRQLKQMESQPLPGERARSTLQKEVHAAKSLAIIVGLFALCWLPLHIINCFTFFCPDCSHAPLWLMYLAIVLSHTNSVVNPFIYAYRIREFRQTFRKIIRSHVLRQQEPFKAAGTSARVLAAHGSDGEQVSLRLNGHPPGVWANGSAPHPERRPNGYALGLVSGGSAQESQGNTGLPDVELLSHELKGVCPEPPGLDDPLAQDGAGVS
Description: The adenosine derivatives of the present invention were assayed for binding affinity and selectivity for A1, A2A and A3 receptors among human adenosine receptor (hAR) as follows.
Adenosine deaminase was added alone or in combination with a radioactive ligand when cerebral meninges were incubated at 30° C. for 30 min. Each of the compounds synthesized in the examples was measured for IC50 at least 6 different concentrations, and the measurements were analyzed using SigmaPlot software to determine Ki values.

A3 adenosine receptor = target: T3, A3 adenosine receptor (Homo sapiens, UniProt P0DMS8); assay: Radioligand binding affinity, A3 adenosine receptor ([125I]AB-MECA, CHO cells); design: % hA3: dose or concentration left out as unconfirmed; details: for Ki: nM ± SEM, read-out: Ki(nM) hA3
T3 construct: expressed in transfected cells; host or cells: CHO cells (ATCC No. CCL-61)
T3 sequence (P0DMS8 1-318): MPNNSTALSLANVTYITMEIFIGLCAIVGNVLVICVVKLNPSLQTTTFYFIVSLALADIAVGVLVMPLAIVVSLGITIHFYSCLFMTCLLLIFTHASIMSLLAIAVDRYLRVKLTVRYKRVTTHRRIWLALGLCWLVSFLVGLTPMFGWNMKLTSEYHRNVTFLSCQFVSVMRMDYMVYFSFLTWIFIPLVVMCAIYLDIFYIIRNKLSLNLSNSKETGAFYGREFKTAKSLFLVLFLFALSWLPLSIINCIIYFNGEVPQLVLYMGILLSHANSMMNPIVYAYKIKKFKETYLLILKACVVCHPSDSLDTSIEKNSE
Description: as §1

[1] = system: TPA-induced inflammation of the mouse ear; assay: Anti-inflammatory activity, TPA-induced mouse ear inflammation; format: in vivo, ICR mice; details: for anti-inflammatory activity: 0.5% in acetone, 20 µl, FIG. 11 (Exp. Ex. 12)
Description: The adenosine derivatives of the present invention were examined for anti-inflammatory activity in the following animal test. Seven-week-old male ICR mice were treated with TPA (12-O-tetradecanoylphorbol-13-acetate, 20 µl) in the right ear. […] Hydrocortisone was used at the same concentration as a control.
6 hrs after treatment with TPA, the mice were secondarily treated with the adenosine derivatives of the present invention. 24 hrs after TPA treatment, test animals were euthanized using a cervical dislocation method. Samples were obtained from the right ear using a 6 mm diameter punch. The activity was observed by measuring the ear sample using a microbalance. Percentages of inhibition were calculated using the following Equation 1. The compositions and amounts used in these experiments are summarized in Tables 14 to 17 and the anti-inflammatory activities thereof are shown in FIGS. 10 to 13. % Inhibition = (1−Rt.Ear(Test−Nontreated))/(Rt.Ear(TPAonly−Nontreated)) [formula]

[2] = 0.5% in a mixture of distilled water and acetone (1:4), FIG. 12 (Exp. Ex. 13)
[3] = 0.5% in a mixture of DMSO and acetone (1:9), FIG. 13 (Exp. Ex. 14)

Compound | % hA1 (A1 adenosine receptor) | % hA2A (A2A adenosine receptor) | Ki (A3 adenosine receptor) | anti-inflammatory activity [1] | Ki (A2A adenosine receptor) | percentages of inflammation inhibition [1, 2] | % hA3 (A3 adenosine receptor; percentage inhibition of specific binding) | Ki (A1 adenosine receptor) | percentages of inflammation inhibition [1, 3]
O[C@@H]1[C@H](O)CS[C@H]1n1cnc2c(NCc3cccc(F)c3)nc(Cl)nc21 [Example 1, (2R,3R,4S)-2-(2-chloro-6-(3-fluorobenzylamino)-9H-purin-9-yl)tetrahydrothiophen-3,4-diol] | 19.8% | 47.6% | 7.4 ± 1.3 nM | increased |  |  |  |  | 
O[C@@H]1[C@H](O)CS[C@H]1n1cnc2c(NCc3cccc(Br)c3)nc(Cl)nc21 [Example 3, (2R,3R,4S)-2-(6-(3-bromobenzylamino)-2-chloro-9H-purin-9-yl)tetrahydrothiophen-3,4-diol] | 34.2% | 18.4% | 8.99 ± 5.17 nM |  |  |  |  |  | 
O[C@@H]1[C@H](O)CS[C@H]1n1cnc2c(NCc3ccccc3Cl)nc(Cl)nc21 [Example 5, (2R,3R,4S)-2-(2-chloro-6-(2-chlorobenzylamino)-9H-purin-9-yl)tetrahydrothiophen-3,4-diol] | 12.8% |  | 25.8 ± 6.3 nM |  | 1600 ± 135 nM | 17% |  |  | 
COc1ccc(Cl)cc1CNc1nc(Cl)nc2c1ncn2[C@@H]1SC[C@@H](O)[C@H]1O [Example 6, (2R,3R,4S)-2-(2-chloro-6-(5-chloro-2-methoxybenzylamino)-9H-purin-9-yl)tetrahydrothiophen-3,4-diol] | 23.8% |  | 12.7 ± 3.7 nM | increased | 4020 ± 1750 nM | 34% |  |  | 
COc1ccccc1CNc1nc(Cl)nc2c1ncn2[C@@H]1SC[C@@H](O)[C@H]1O [Example 7, (2R,3R,4S)-2-(2-chloro-6-(2-methoxybenzylamino)-9H-purin-9-yl)tetrahydrothiophen-3,4-diol] | 9.4% | 17.5% | 19.9 ± 7.1 nM |  |  | 53% |  |  | 
O[C@@H]1[C@H](O)CS[C@H]1n1cnc2c(NCc3cccc4ccccc34)nc(Cl)nc21 [Example 8, (2R,3R,4S)-2-(2-chloro-6-(naphthalen-1-ylmethylamino)-9H-purin-9-yl)tetrahydrothiophen-3,4-diol] | 22.0% | -8.3% | 24.8 ± 8.1 nM |  |  |  |  |  | 
O=C(O)c1cccc(CNc2nc(Cl)nc3c2ncn3[C@@H]2SC[C@@H](O)[C@H]2O)c1 [Example 9, 3-((2-chloro-9-((2R,3R,4S)-3,4-dihydroxytetrahydrothiophen-2-yl)-9H-purine-6-ylamino)methyl)benzoic acid] | 13.1% | -0.18% |  |  |  |  | 41.5% |  | 
CNc1nc(Cl)nc2c1ncn2[C@@H]1SC[C@H](O)[C@@H]1O [Example 10, 2-(2-chloro-6-methylamino-purin-9-yl)tetrahydrothiophen-3,4-diol] | 55.4 ± 1.8% | 45.0 ± 1.4% | 3.69 ± 0.25 nM |  |  |  |  |  | 
O[C@@H]1[C@H](O)CS[C@H]1n1cnc2c(NCc3cccc(F)c3)ncnc21 [Example 11, (2R,3R,4S)-2-(6-(3-fluorobenzylamino)-9H-purin-9-yl)tetrahydrothiophen-3,4-diol] |  |  | 7.3 ± 0.6 nM |  | 1260 ± 330 nM |  |  | 1430 ± 420 nM | 
O[C@@H]1[C@H](O)CS[C@H]1n1cnc2c(NCc3cccc(Cl)c3)ncnc21 [Example 12, (2R,3R,4S)-2-(6-(3-chlorobenzylamino)-9H-purin-9-yl)tetrahydrothiophen-3,4-diol] |  |  | 1.5 ± 0.4 nM |  | 440 ± 110 nM |  |  | 860 ± 210 nM | 
O[C@@H]1[C@H](O)CS[C@H]1n1cnc2c(NCc3cccc(Br)c3)ncnc21 [Example 13, (2R,3R,4S)-2-(6-(3-bromobenzylamino)-9H-purin-9-yl)tetrahydrothiophen-3,4-diol] |  |  | 6.8 ± 3.4 nM |  | 420 ± 32 nM |  |  | 790 ± 190 nM | 
O[C@@H]1[C@H](O)CO[C@H]1n1cnc2c(NCc3cccc(Br)c3)nc(Cl)nc21 [Example 15, (2R,3R,4R)-2-(6-(3-bromobenzylamino)-2-chloro-9H-purin-9-yl)tetrahydrofuran-3,4-diol] | 39.8% | 22.8% | 13 ± 6.9 nM |  |  |  |  |  | 59%
O[C@@H]1[C@H](O)CO[C@H]1n1cnc2c(NCc3cccc(I)c3)nc(Cl)nc21 [Example 16, (2R,3R,4R)-2-(2-chloro-6-(3-iodobenzylamino)-9H-purin-9-yl)tetrahydrofuran-3,4-diol] | 37.7% | 28.6% | 42.9 ± 8.9 nM |  |  |  |  |  | 79%
